According to ChEMBL document CHEMBL4507267 (2021):

What was measured:
[1] = system: Tyrosine-protein kinase ABL1 (Homo sapiens), P00519 [F317L]; conditions: Compound concentration 1000.0 nM
[2] = system: Tyrosine-protein kinase ABL1 (Homo sapiens), P00519 [T315I]; conditions: Compound concentration 1000.0 nM
[3] = target: ALK tyrosine kinase receptor (Homo sapiens) (UniProt Q9UM73); conditions: Compound concentration 1000.0 nM
[4] = target: Calcium/calmodulin-dependent protein kinase type 1G (Homo sapiens) (UniProt Q96NX5); conditions: Compound concentration 1000.0 nM
[5] = target: Calcium/calmodulin-dependent protein kinase type IV (Homo sapiens) (UniProt Q16566); conditions: Compound concentration 1000.0 nM
[6] = target: Dual specificity protein kinase CLK4 (Homo sapiens) (UniProt Q9HAZ1); conditions: Compound concentration 1000.0 nM
[7] = target: Casein kinase I isoform alpha-like (Homo sapiens) (UniProt Q8N752); conditions: Compound concentration 1000.0 nM
Casein kinase I isoform alpha-like (Homo sapiens), sequence (Q8N752 whole entry, canonical isoform): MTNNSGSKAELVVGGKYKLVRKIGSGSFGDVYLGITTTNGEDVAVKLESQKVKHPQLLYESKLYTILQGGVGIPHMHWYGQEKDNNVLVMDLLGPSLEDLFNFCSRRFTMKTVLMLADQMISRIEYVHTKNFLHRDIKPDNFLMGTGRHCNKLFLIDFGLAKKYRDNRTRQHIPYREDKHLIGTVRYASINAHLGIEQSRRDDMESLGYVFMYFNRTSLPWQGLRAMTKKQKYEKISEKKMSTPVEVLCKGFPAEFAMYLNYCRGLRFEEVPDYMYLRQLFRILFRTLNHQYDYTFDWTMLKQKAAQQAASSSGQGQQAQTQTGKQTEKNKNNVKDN

[8] = target: Casein kinase I isoform delta (Homo sapiens) (UniProt P48730); conditions: Compound concentration 1000.0 nM
Casein kinase I isoform delta (Homo sapiens), sequence (P48730 whole entry, looked up, canonical isoform): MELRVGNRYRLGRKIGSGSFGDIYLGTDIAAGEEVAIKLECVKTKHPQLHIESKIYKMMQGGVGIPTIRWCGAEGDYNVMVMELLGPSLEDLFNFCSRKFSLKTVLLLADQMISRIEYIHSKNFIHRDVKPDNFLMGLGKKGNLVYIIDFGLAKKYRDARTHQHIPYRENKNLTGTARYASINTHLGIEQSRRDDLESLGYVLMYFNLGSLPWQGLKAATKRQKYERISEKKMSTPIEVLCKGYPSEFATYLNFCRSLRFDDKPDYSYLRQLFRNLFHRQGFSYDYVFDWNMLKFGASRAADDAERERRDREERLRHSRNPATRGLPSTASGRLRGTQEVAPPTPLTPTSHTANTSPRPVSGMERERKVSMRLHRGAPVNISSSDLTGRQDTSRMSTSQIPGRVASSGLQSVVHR

[9] = target: Casein kinase II subunit alpha (Homo sapiens) (UniProt P68400); conditions: Compound concentration 1000.0 nM
[10] = target: Ephrin type-A receptor 2 (Homo sapiens) (UniProt P29317); conditions: Compound concentration 1000.0 nM
[11] = target: Mitogen-activated protein kinase 1 (Homo sapiens) (UniProt P28482); conditions: Compound concentration 1000.0 nM
[12] = target: Tyrosine-protein kinase Fer (Homo sapiens) (UniProt P16591); conditions: Compound concentration 1000.0 nM
[13] = system: Receptor-type tyrosine-protein kinase FLT3 (Homo sapiens), P36888 [UNDEFINED MUTATION]; conditions: Compound concentration 1000.0 nM
Receptor-type tyrosine-protein kinase FLT3 (Homo sapiens), P36888 [UNDEFINED MUTATION], sequence (P36888 whole entry, looked up, change not shown): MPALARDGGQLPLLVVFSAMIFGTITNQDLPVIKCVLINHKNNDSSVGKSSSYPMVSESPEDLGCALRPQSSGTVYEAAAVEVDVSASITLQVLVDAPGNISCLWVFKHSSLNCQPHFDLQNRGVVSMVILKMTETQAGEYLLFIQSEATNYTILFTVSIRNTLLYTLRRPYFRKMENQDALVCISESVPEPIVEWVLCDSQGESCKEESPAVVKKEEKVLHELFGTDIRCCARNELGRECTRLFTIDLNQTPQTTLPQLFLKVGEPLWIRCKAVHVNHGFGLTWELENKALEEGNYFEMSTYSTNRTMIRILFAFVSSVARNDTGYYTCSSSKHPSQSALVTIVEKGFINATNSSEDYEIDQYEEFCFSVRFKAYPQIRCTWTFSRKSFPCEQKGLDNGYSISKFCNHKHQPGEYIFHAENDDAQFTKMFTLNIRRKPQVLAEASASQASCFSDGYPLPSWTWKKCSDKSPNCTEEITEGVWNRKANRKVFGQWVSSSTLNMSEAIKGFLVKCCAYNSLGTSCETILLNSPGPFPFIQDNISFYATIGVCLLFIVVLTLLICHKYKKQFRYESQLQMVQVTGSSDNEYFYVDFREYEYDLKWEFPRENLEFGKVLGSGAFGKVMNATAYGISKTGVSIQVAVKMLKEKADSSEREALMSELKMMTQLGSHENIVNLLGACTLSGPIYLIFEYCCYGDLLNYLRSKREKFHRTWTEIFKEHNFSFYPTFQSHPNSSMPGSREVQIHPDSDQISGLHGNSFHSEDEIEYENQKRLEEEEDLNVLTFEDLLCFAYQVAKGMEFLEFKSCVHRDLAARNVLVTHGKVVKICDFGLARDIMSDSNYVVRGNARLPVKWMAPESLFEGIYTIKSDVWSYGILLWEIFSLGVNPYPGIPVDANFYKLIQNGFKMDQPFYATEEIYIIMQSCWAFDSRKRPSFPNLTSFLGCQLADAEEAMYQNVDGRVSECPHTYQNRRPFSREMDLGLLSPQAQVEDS

[14] = system: Receptor-type tyrosine-protein kinase FLT3 (Homo sapiens), P36888 [UNDEFINED MUTATION]; conditions: Compound concentration 1000.0 nM; remark: listed apart in the source
[15] = target: Tyrosine-protein kinase FRK (Homo sapiens) (UniProt P42685); conditions: Compound concentration 1000.0 nM
[16] = target: G protein-coupled receptor kinase 3 (Homo sapiens) (UniProt P35626); conditions: Compound concentration 1000.0 nM
[17] = target: Glycogen synthase kinase-3 beta (Homo sapiens) (UniProt P49841); conditions: Compound concentration 1000.0 nM
[18] = target: Hormonally up-regulated neu tumor-associated kinase (Homo sapiens) (UniProt P57058); conditions: Compound concentration 1000.0 nM
Hormonally up-regulated neu tumor-associated kinase (Homo sapiens), sequence (P57058 whole entry): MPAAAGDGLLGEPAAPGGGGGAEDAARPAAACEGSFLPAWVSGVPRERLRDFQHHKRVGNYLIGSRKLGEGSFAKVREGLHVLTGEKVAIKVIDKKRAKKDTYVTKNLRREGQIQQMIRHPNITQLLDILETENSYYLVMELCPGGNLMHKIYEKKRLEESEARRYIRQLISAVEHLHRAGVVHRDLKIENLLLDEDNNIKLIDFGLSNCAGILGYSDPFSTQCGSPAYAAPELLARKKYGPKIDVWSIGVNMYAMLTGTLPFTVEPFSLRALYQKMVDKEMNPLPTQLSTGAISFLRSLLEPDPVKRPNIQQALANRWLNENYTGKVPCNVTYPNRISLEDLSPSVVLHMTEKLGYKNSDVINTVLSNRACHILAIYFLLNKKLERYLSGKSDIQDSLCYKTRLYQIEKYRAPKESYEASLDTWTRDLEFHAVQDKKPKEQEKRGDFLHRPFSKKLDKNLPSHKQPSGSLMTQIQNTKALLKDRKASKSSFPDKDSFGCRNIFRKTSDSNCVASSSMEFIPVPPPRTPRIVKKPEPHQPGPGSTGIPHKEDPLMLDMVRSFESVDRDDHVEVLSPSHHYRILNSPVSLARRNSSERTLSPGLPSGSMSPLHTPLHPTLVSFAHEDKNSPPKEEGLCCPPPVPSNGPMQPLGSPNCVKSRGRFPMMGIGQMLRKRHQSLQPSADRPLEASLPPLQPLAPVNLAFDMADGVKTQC

[19] = system: Mast/stem cell growth factor receptor Kit (Homo sapiens), P10721 [V559D]; conditions: Compound concentration 1000.0 nM
[20] = target: Mast/stem cell growth factor receptor Kit (Homo sapiens) (UniProt P10721); conditions: Compound concentration 1000.0 nM
[21] = system: Leucine-rich repeat serine/threonine-protein kinase 2 (Homo sapiens), Q5S007 [G2019S]; conditions: Compound concentration 1000.0 nM
[22] = target: Mitogen-activated protein kinase kinase kinase kinase 3 (Homo sapiens) (UniProt Q8IVH8); conditions: Compound concentration 1000.0 nM
[23] = target: Dual specificity mitogen-activated protein kinase kinase 6 (Homo sapiens) (UniProt P52564); conditions: Compound concentration 1000.0 nM
Dual specificity mitogen-activated protein kinase kinase 6 (Homo sapiens), sequence (P52564 whole entry): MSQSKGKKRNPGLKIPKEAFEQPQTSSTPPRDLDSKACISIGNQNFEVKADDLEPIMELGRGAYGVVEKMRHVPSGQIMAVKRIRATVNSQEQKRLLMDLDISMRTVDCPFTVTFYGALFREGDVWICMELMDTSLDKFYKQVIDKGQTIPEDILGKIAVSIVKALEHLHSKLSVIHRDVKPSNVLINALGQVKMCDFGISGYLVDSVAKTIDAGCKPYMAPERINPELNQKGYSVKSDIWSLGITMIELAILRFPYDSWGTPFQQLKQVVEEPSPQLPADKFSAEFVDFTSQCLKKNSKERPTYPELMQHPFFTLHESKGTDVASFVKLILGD

[24] = system: Hepatocyte growth factor receptor (Homo sapiens), P08581 [M1250T]; conditions: Compound concentration 1000.0 nM
[25] = system: Hepatocyte growth factor receptor (Homo sapiens), P08581 [Y1235D]; conditions: Compound concentration 1000.0 nM
[26] = target: MAP kinase-interacting serine/threonine-protein kinase 2 (Homo sapiens) (UniProt Q9HBH9); conditions: Compound concentration 1000.0 nM
[27] = target: Serine/threonine-protein kinase MRCK alpha (Homo sapiens) (UniProt Q5VT25); conditions: Compound concentration 1000.0 nM
[28] = target: Serine/threonine-protein kinase 38-like (Homo sapiens) (UniProt Q9Y2H1); conditions: Compound concentration 1000.0 nM
[29] = target: Mitogen-activated protein kinase 12 (Homo sapiens) (UniProt P53778); conditions: Compound concentration 1000.0 nM
[30] = target: Serine/threonine-protein kinase PAK 1 (Homo sapiens) (UniProt Q13153); conditions: Compound concentration 1000.0 nM
[31] = target: Platelet-derived growth factor receptor beta (Homo sapiens) (UniProt P09619); conditions: Compound concentration 1000.0 nM
[32] = target: Cyclin-dependent kinase 14 (Homo sapiens) (UniProt O94921); conditions: Compound concentration 1000.0 nM
[33] = target: Phosphorylase b kinase gamma catalytic chain, skeletal muscle/heart isoform (Homo sapiens) (UniProt Q16816); conditions: Compound concentration 1000.0 nM
[34] = target: Phosphatidylinositol 4,5-bisphosphate 3-kinase catalytic subunit beta isoform (Homo sapiens) (UniProt P42338); conditions: Compound concentration 1000.0 nM
[35] = target: Serine/threonine-protein kinase N2 (Homo sapiens) (UniProt Q16513); conditions: Compound concentration 1000.0 nM
[36] = target: cGMP-dependent protein kinase 1 (Homo sapiens) (UniProt Q13976); conditions: Compound concentration 1000.0 nM
[37] = target: cAMP-dependent protein kinase catalytic subunit PRKX (Homo sapiens) (UniProt P51817); conditions: Compound concentration 1000.0 nM
[38] = target: Ribosomal protein S6 kinase alpha-5 (Homo sapiens) (UniProt O75582); conditions: Compound concentration 1000.0 nM
[39] = target: Serine/threonine-protein kinase Sgk1 (Homo sapiens) (UniProt O00141); conditions: Compound concentration 1000.0 nM
Serine/threonine-protein kinase Sgk1 (Homo sapiens), sequence (O00141 whole entry): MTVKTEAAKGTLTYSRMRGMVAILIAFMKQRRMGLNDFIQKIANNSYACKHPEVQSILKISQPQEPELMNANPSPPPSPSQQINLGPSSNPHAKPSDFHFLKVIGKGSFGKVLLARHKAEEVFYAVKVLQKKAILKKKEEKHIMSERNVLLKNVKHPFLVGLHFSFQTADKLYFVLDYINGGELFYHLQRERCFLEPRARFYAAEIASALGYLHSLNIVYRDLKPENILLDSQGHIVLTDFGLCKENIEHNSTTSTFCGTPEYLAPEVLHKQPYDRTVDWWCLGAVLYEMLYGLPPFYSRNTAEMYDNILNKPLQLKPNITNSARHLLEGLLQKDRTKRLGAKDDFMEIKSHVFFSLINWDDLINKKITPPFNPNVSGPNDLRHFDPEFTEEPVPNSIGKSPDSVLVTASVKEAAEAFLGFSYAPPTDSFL

[40] = target: Serine/threonine-protein kinase 16 (Homo sapiens) (UniProt O75716); conditions: Compound concentration 1000.0 nM
Serine/threonine-protein kinase 16 (Homo sapiens), sequence (O75716 whole entry): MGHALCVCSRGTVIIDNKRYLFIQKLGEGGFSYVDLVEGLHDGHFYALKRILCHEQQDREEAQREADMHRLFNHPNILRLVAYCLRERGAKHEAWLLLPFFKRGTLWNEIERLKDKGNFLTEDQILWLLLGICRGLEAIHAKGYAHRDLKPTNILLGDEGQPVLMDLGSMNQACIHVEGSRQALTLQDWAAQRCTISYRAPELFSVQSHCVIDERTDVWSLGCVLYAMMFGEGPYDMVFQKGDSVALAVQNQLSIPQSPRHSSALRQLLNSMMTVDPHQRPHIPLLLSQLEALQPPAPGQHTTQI

[41] = target: Dual specificity protein kinase TTK (Homo sapiens) (UniProt P33981); conditions: Compound concentration 1000.0 nM
Dual specificity protein kinase TTK (Homo sapiens), sequence (P33981 whole entry): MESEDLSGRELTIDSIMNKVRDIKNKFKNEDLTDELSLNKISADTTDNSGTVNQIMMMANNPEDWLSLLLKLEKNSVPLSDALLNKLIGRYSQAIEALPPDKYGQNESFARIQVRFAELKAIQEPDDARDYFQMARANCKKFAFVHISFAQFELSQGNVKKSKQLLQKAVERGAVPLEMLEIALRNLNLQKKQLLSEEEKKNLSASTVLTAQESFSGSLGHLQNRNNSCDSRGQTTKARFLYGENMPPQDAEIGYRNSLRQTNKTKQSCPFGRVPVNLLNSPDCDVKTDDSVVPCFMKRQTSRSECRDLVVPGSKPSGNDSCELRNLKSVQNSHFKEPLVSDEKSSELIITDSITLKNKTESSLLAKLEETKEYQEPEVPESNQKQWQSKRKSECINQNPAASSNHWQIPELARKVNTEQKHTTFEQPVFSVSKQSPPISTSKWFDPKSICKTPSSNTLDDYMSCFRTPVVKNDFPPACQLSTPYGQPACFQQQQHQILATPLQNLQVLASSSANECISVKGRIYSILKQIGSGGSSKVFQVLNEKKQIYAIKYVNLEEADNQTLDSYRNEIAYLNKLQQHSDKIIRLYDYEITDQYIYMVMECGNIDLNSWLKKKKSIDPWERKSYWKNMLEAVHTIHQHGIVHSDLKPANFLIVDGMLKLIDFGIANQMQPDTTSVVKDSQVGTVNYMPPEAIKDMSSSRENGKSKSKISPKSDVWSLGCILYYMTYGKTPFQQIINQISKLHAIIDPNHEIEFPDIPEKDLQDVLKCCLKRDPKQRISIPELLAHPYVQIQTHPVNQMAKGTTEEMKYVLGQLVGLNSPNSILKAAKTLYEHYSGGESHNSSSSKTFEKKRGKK

[42] = target: Tyrosine-protein kinase receptor TYRO3 (Homo sapiens) (UniProt Q06418); conditions: Compound concentration 1000.0 nM
[43] = target: D(2) dopamine receptor (Homo sapiens) (UniProt P14416); conditions: Compound concentration 10.0 uM
D(2) dopamine receptor (Homo sapiens), sequence (P14416 whole entry): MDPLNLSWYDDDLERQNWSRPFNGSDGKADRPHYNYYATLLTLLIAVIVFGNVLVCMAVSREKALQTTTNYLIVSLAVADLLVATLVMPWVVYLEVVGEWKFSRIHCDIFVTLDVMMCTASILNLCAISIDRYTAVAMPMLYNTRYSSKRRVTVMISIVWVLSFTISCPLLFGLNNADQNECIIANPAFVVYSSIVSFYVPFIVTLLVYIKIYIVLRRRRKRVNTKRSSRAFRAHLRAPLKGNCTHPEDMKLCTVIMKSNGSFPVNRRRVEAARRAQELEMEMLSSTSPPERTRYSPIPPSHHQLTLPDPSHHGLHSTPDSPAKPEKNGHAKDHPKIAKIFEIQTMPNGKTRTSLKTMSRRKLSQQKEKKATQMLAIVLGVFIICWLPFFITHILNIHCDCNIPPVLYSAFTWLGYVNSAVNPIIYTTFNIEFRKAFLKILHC

[44] = target: D(4) dopamine receptor (Homo sapiens) (UniProt P21917); conditions: Compound concentration 10.0 uM
[45] = target: Alpha-1A adrenergic receptor (Homo sapiens) (UniProt P35348); conditions: Compound concentration 10.0 uM

Cc1c(NC(=O)c2cc(C(N)=O)nc3cc(F)ccc23)c(C(F)(F)F)nn1Cc1ccc(C#N)cc1 [BAY-876]
inactive: residual activity [1] 81% | residual activity [2] 100% | residual activity [3] 87% | residual activity [4] 75% | residual activity [5] 76% | residual activity [6] 87% | residual activity [7] 100% | residual activity [8] 76% | residual activity [9] 78% | residual activity [10] 81% | residual activity [11] 100% | residual activity [12] 99% | residual activity [13] 80% | residual activity [14] 68% | residual activity [15] 100% | residual activity [16] 89% | residual activity [17] 88% | residual activity [18] 77% | residual activity [19] 100% | residual activity [20] 72% | residual activity [21] 100% | residual activity [22] 99% | residual activity [23] 100% | residual activity [24] 91% | residual activity [25] 100% | residual activity [26] 92% | residual activity [27] 97% | residual activity [28] 100% | residual activity [29] 86% | residual activity [30] 100% | residual activity [31] 87% | residual activity [32] 100% | residual activity [33] 100% | residual activity [34] 83% | residual activity [35] 81% | residual activity [36] 100% | residual activity [37] 92% | residual activity [38] 97% | residual activity [39] 90% | residual activity [40] 100% | residual activity [41] 95% | residual activity [42] 81% | inhibition [43] 8.73% | inhibition [44] 15.1% | inhibition [45] -5.75%

Cc1c(NC(=O)c2cc(C(N)=O)nc3cc(F)ccc23)c(C(F)(F)F)nn1Cc1ccc(C(C)(C)C)cc1 [BAY-588]
inactive: residual activity [1] 98% | residual activity [2] 100% | residual activity [3] 96% | residual activity [4] 100% | residual activity [5] 90% | residual activity [6] 100% | residual activity [7] 93% | residual activity [8] 81% | residual activity [9] 100% | residual activity [10] 97% | residual activity [11] 71% | residual activity [12] 100% | residual activity [13] 95% | residual activity [14] 100% | residual activity [15] 90% | residual activity [16] 100% | residual activity [17] 100% | residual activity [18] 100% | residual activity [19] 95% | residual activity [20] 100% | residual activity [21] 100% | residual activity [22] 98% | residual activity [23] 92% | residual activity [24] 88% | residual activity [25] 84% | residual activity [26] 100% | residual activity [27] 100% | residual activity [28] 89% | residual activity [29] 56% | residual activity [30] 98% | residual activity [31] 76% | residual activity [32] 94% | residual activity [33] 100% | residual activity [34] 100% | residual activity [35] 100% | residual activity [36] 99% | residual activity [37] 94% | residual activity [38] 100% | residual activity [39] 100% | residual activity [40] 83% | residual activity [41] 79% | residual activity [42] 100% | inhibition [43] 18% | inhibition [44] 4.93% | inhibition [45] 5.25%
